The subject of experiment [1] is Radical scavenging activity. Briefly: Antioxidant activity assessed as DPPH free radical scavenging activity after 20 to 60 mins by spectrophotometry. The format is functional. Also noted: concentration or dose not given beside the values.
Experiment [2] is described as follows: Antioxidant activity against AAPH-induced lipid peroxidation assessed as linoleic acid oxidation to diene hydroperoxide at 0.1 mM by UV-visible spectrophotometry. The format is functional.
Experiment [3] concerns Glycine max. Briefly: Inhibition of soybean LOX assessed as inhibition of sodium linoleate to 13-hydroperoxylinoleic acid conversion at 0.1 mM by UV-visible spectrophotometry.
In experiment [4] the test system is Rattus norvegicus. Briefly: Antiinflammatory activity in Fisher 344 rat assessed as inhibition of carrageenan-induced paw edema at 0.01 mmol/kg, ip administered simultaneously with carrageenan measured after 3.5 hrs relative to control. The format is functional. The conditions noted are these: Fisher 344, ip.
A short description of experiment [5]: Inhibition of soybean LOX assessed as inhibition of sodium linoleate to 13-hydroperoxylinoleic acid conversion by UV-visible spectrophotometry. Also noted: species or system Glycine max.

Active and inactive are the calls of the source. The calls are words filed in the database; no cut-off is given here.

In the case of `COC(=O)c1cncn1C[C@@H]1CCC(=O)N1Cc1ccc(C(=O)O)cc1`, the Activity in experiment [1] stood at 26%. The inhibition result in experiment [2] and in experiment [3] was “inactive” throughout.

As to `COc1ccc2c(c1)c(CC(=O)O)c(C)n2C(=O)c1ccc(Cl)cc1` [INDOMETHACIN], the inhibition in vivo at 10 µmol/kg in experiment [4] came to 47%.

As to `COC(=O)c1ccc(CN2C(=O)CC[C@H]2Cn2ccnc2)cc1`, the Activity in experiment [1] was determined as 6%. Further, in experiment [2], the inhibition turned out to be 13%. In experiment [3], the inhibition entry was “inactive”.

For `Cc1c(C)c2c(c(C)c1O)CCC(C)(C(=O)O)O2` (stereo not drawn), in experiment [2], the inhibition was found to be 63%.

Consider `O=C1CC[C@@H](Cn2ccnc2)N1Cc1cccc(O)c1`, for which, in experiment [1], the Activity came out at 29%. In experiment [2], the inhibition stood at 13%. Besides, the inhibition entry in experiment [3] is “inactive”.

On to `CC(Cc1ccc(O)c(O)c1)C(C)Cc1ccc(O)c(O)c1` (stereo not drawn), for which the Activity in experiment [1] was 81%. The inhibition in experiment [3] was 84%.

On to `COC(=O)c1ccc(CN2C(=O)CC[C@H]2Cn2cncc2C(=O)O)cc1`, for which, in experiment [5], the IC50 came out at 70.5 µM. The Activity in experiment [1] was found to be 3%. Also, the inhibition in vivo at 10 µmol/kg in experiment [4] is 34%. In experiment [2], the inhibition amounted to 96%.

Turning to `O=C1CC[C@@H](Cn2ccnc2)N1Cc1ccccc1`, the Activity in experiment [1] amounted to 9%. Further, the inhibition amounted to 11% in experiment [2] and 13% in experiment [3].

As for `O=C1CC[C@@H](Cn2ccnc2)N1Cc1ccccc1-c1nn[nH]n1`, in experiment [1], the Activity was found to be 30%. For the same compound, the inhibition in experiment [2] was determined as 32%; in experiment [3], 5.2%.

On to `O=C(O)/C=C/c1ccc(O)c(O)c1` [CAFFEIC ACID], for which the IC50 in experiment [5] came to 600 µM. For the same compound, in experiment [1], the Activity came to 5.5%. The inhibition in experiment [2] worked out at 17%.

Consider `O=C(O)c1cncn1C[C@@H]1CCC(=O)N1Cc1ccccc1`, for which the outcome in experiment [1] was inactive. In addition, in experiment [2], the inhibition entry is “inactive”. Moreover, the inhibition in experiment [3] stood at 81%.

Turning to `O=C(O)c1ccc(CN2C(=O)CC[C@H]2Cn2ccnc2)cc1`, the IC50 in experiment [5] worked out at 80 µM. The Activity in experiment [1] was 6%. In addition, in experiment [4], the inhibition in vivo at 10 µmol/kg is 41%. Besides, the inhibition in experiment [2] was found to be 2%.

Values taken from ChEMBL document CHEMBL1772992, “Synthesis, in silico docking experiments of new 2-pyrrolidinone derivatives and study of their anti-inflammatory activity” (Bioorg Med Chem, 2011).
